Data from patent US10947574B2, “Method for producing fermented carotenoid using carotenoid-producing bacteria obtained by using cobalt-containing culturing medium” (ENEOS CORPORATION, priority 2015, dated 2021).

Experiments:
[1] = system: Paracoccus zeaxanthinifaciens strain ATCC 21588; test: Example 7: cobalt concentration series, growth (OD610) and carotenoid levels (HPLC); assay type: cell-based
Method: (§1) In the following examples, carotenoids were quantified by high performance liquid chromatography (HPLC) as follows.
(§2) Two columns of Inertsil SIL-100A, 5 μm (ϕ4.6 mm×250 mm) (GL Sciences Inc., Japan) were connected together for use as a column. For elution, a mixed solution of n-hexane, tetrahydrofuran and methanol (40:20:1) serving as a mobile phase was passed through the column at a flow rate of 1.0 mL per minute at a constant temperature around room temperature. For measurement, samples were each dissolved in tetrahydrofuran and diluted 100-fold with the mobile phase, and 20 μL aliquots of the resulting dilutions were injected into the column. The column eluates were detected at a wavelength of 470 nm. As a standard for quantification, astaxanthin (SIGMA, Cat. No. A9335) was used. The astaxanthin concentration of the standard solution was determined using the following equation after measuring the absorbance (A) of the standard solution at 477 nm and the area percentage % (B) of the astaxanthin peak in HPLC analysis under the above conditions.
Subsequently, a medium of the following composition (glucose 30 g/L, filtered corn steep liquor 30 g/L, ammonium sulfate 1.5 g/L, potassium dihydrogen phosphate 1.5 g/L, disodium hydrogen phosphate dodecahydrate 3.8 g/L, calcium chloride dihydrate 5.0 g/L, magnesium sulfate heptahydrate 0.7 g/L, iron sulfate heptahydrate 1.0 g/L, silicon-based defoaming agent 0.2 g/L) was dispensed in 7.2 ml volumes into cotton-plugged test tubes having an inner diameter of 18 mm to prepare 9 test tubes containing a test tube medium for production. The ingredients used to prepare the test tube medium for production were obtained from lots where microbial cells had been confirmed not to grow well.
The resulting culture solution was then inoculated in 0.05 ml volumes into the 9 types of test tube media for production having different cobalt concentrations, and cultured under shaking at 28° C. for 4 days at 300 spm.
After being cultured for 4 days, the culture solutions were each measured for microbial cell growth by OD610 and measure for carotenoid levels by HPLC.

[2] = system: Paracoccus carotinifaciens mutant strain CF-358; test: Example 5: 5 L fermenter culture with cobalt chloride, growth (OD610) and carotenoid levels (HPLC); assay type: cell-based
Method: as §1
as §2, with “conditions. […]” for “conditions.”
The ingredients used to prepare the seed flask medium were obtained from lots where microbial cells had been confirmed to grow well.
The resulting culture solution was then inoculated in 80 ml volumes into the individual fermenters, followed by aeration spinner culture at 28° C. under a gauge pressure of 0.01 MPa at an aeration volume of 1.5 vvm for 5 days. To maintain a pH of 7.2 during culture, 15% aqueous ammonia was automatically supplied. The number of spinner rotations was automatically varied such that the dissolved oxygen concentration in each culture solution was maintained at 2 to 4 ppm. An alcohol-based defoaming agent was automatically added to avoid bubbling.
At the completion of culture, the culture solutions were each measured for microbial cell growth by OD610 and measured for carotenoid levels by HPLC (Table 10).

[3] = cobalt added 0.00042 μmol/L, total 0.0024 μmol/L
[4] = cobalt added 0.0042 μmol/L, total 0.0062 μmol/L
[5] = cobalt added 0.021 μmol/L, total 0.023 μmol/L
[6] = cobalt added 0.042 μmol/L, total 0.044 μmol/L
[7] = cobalt added 0.42 μmol/L, total 0.42 μmol/L
[8] = cobalt added 4.2 μmol/L, total 4.2 μmol/L
[9] = cobalt added 21 μmol/L, total 21 μmol/L
[10] = cobalt added 42 μmol/L, total 42 μmol/L
[11] = cobalt added 0.042 μmol/L, total 0.045 μmol/L

O.O.O.O.O.O.[Cl-].[Cl-].[Co+2] [Cobalt chloride hexahydrate]
Carotenoid: Zeaxanthin [1, 3]: 0.6 mg/L | Carotenoid: β-Carotene [1, 3]: 0.0 mg/L | Carotenoid: β-Cryptoxanthin [1, 3]: 0.0 mg/L | OD610 [1, 3]: 2 | Total carotenoid [1, 3]: 0.6 mg/L | Carotenoid: Zeaxanthin [1, 4]: 2.0 mg/L | Carotenoid: β-Carotene [1, 4]: 0.2 mg/L | Carotenoid: β-Cryptoxanthin [1, 4]: 0.1 mg/L | OD610 [1, 4]: 6 | Total carotenoid [1, 4]: 2.3 mg/L | Carotenoid: Zeaxanthin [1, 5]: 10.6 mg/L | Carotenoid: β-Carotene [1, 5]: 0.7 mg/L | Carotenoid: β-Cryptoxanthin [1, 5]: 0.3 mg/L | OD610 [1, 5]: 25 | Total carotenoid [1, 5]: 11.6 mg/L | Carotenoid: Zeaxanthin [1, 6]: 13.6 mg/L | Carotenoid: β-Carotene [1, 6]: 0.8 mg/L | Carotenoid: β-Cryptoxanthin [1, 6]: 0.3 mg/L | OD610 [1, 6]: 29 | Total carotenoid [1, 6]: 14.7 mg/L | Carotenoid: Zeaxanthin [1, 7]: 13.4 mg/L | Carotenoid: β-Carotene [1, 7]: 0.7 mg/L | Carotenoid: β-Cryptoxanthin [1, 7]: 0.3 mg/L | OD610 [1, 7]: 29 | Total carotenoid [1, 7]: 14.4 mg/L | Carotenoid: Zeaxanthin [1, 8]: 12.9 mg/L | Carotenoid: β-Carotene [1, 8]: 0.7 mg/L | Carotenoid: β-Cryptoxanthin [1, 8]: 0.3 mg/L | OD610 [1, 8]: 28 | Total carotenoid [1, 8]: 13.9 mg/L | Carotenoid: Zeaxanthin [1, 9]: 10.8 mg/L | Carotenoid: β-Carotene [1, 9]: 0.6 mg/L | Carotenoid: β-Cryptoxanthin [1, 9]: 0.4 mg/L | OD610 [1, 9]: 24 | Total carotenoid [1, 9]: 11.8 mg/L | Carotenoid: Zeaxanthin [1, 10]: 6.4 mg/L | Carotenoid: β-Carotene [1, 10]: 0.3 mg/L | Carotenoid: β-Cryptoxanthin [1, 10]: 0.3 mg/L | OD610 [1, 10]: 18 | Total carotenoid [1, 10]: 7.0 mg/L | Carotenoid: 3-Hydroxyechinenone [2, 11]: 12 mg/L | Carotenoid: Adonirubin [2, 11]: 273 mg/L | Carotenoid: Adonixanthin [2, 11]: 45 mg/L | Carotenoid: Astaxanthin [2, 11]: 775 mg/L | Carotenoid: Asteroidenone [2, 11]: 11 mg/L | Carotenoid: Canthaxanthin [2, 11]: 90 mg/L | Carotenoid: Echinenone [2, 11]: 37 mg/L | Carotenoid: β-Carotene [2, 11]: 58 mg/L | OD610 [2, 11]: 194 | Total carotenoid [2, 11]: 1302 mg/L | Total carotenoid/dry microbial cells [2, 11]: 41.9 mg/g | Carotenoid: 3-Hydroxyechinenone [2, 7]: 12 mg/L | Carotenoid: Adonirubin [2, 7]: 216 mg/L | Carotenoid: Adonixanthin [2, 7]: 73 mg/L | Carotenoid: Astaxanthin [2, 7]: 815 mg/L | Carotenoid: Asteroidenone [2, 7]: 15 mg/L | Carotenoid: Canthaxanthin [2, 7]: 74 mg/L | Carotenoid: Echinenone [2, 7]: 37 mg/L | Carotenoid: β-Carotene [2, 7]: 60 mg/L | OD610 [2, 7]: 208 | Total carotenoid [2, 7]: 1303 mg/L | Total carotenoid/dry microbial cells [2, 7]: 39.1 mg/g | Carotenoid: 3-Hydroxyechinenone [2, 8]: 5 mg/L | Carotenoid: Adonirubin [2, 8]: 285 mg/L | Carotenoid: Adonixanthin [2, 8]: 18 mg/L | Carotenoid: Astaxanthin [2, 8]: 580 mg/L | Carotenoid: Asteroidenone [2, 8]: 3 mg/L | Carotenoid: Canthaxanthin [2, 8]: 338 mg/L | Carotenoid: Echinenone [2, 8]: 61 mg/L | Carotenoid: β-Carotene [2, 8]: 29 mg/L | OD610 [2, 8]: 191 | Total carotenoid [2, 8]: 1319 mg/L | Total carotenoid/dry microbial cells [2, 8]: 43.2 mg/g | Carotenoid: 3-Hydroxyechinenone [2, 9]: 4 mg/L | Carotenoid: Adonirubin [2, 9]: 347 mg/L | Carotenoid: Adonixanthin [2, 9]: 7 mg/L | Carotenoid: Astaxanthin [2, 9]: 103 mg/L | Carotenoid: Asteroidenone [2, 9]: 1 mg/L | Carotenoid: Canthaxanthin [2, 9]: 431 mg/L | Carotenoid: Echinenone [2, 9]: 103 mg/L | Carotenoid: β-Carotene [2, 9]: 27 mg/L | OD610 [2, 9]: 143 | Total carotenoid [2, 9]: 1023 mg/L | Total carotenoid/dry microbial cells [2, 9]: 44.9 mg/g | total carotenoid production level, in words ([2]; final concentration of 0.042 to 21 μmol/L): high
